Broadly, the IC50 is the concentration at which inhibition is half-maximal. Read a high IC50 as weaker potency.

Chain of GST tagged IRAK-4 (Q9NWZ3 whole entry): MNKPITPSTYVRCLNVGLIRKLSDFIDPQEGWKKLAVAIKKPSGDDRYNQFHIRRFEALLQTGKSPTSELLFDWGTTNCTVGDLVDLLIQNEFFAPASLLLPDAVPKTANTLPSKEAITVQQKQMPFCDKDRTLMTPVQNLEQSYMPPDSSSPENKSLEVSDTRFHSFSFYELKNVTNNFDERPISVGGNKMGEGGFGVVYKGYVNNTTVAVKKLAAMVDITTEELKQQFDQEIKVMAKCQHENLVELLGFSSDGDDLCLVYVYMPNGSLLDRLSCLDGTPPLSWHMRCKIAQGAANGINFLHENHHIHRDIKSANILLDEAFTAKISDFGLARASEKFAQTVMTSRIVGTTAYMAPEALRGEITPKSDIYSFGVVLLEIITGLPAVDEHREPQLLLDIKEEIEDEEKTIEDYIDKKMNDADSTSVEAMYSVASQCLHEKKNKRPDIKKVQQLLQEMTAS

One experiment addresses GST tagged IRAK-4 (Homo sapiens (Human), UniProt Q9NWZ3). The experiment is described as follows: IRAK-4 Kinase Assay (IMAP fluorescence polarization). It counts as biochemical. Particulars: 100 μM ATP, 30 minutes at 25° C. The gist of the method: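 Activity was read by IMAP fluorescence polarization, where phosphopeptide binding to M(III) nanoparticles raises FP. The 30-minute, 25° C reaction used 100 μM ATP, 100 nM RP7030 substrate and 0.5 nM GST-IRAK-4 in pH 7.2 Tris buffer with MgCl2, DTT and Tween 20.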
In general terms: Fluorescence polarisation rises when a labelled molecule tumbles more slowly, as on binding a larger partner.
The compound `O=C(Nc1cc(C2CCN(C3CCC3)CC2)nn1-c1ccc(Cl)cc1F)c1cnn2cccnc12` [Example 51, N-(1-(4-chloro-2-fluorophenyl)-3-(1-cyclobutylpiperidin-4-yl)-1H-pyrazol-5-yl)pyrazolo[1,5-a]pyrimidine-3-carboxamide] displayed an IC50 of under 0.1 µM.

The compound `Cc1ccc(-n2nc(C3CCC(N)CC3)cc2NC(=O)c2cnn3cccnc23)nc1` (stereo not drawn) [Example 185, N-(3-(4-aminocyclohexyl)-1-(5-methylpyridin-2-yl)-1H-pyrazol-5-yl)pyrazolo[1,5-a]pyrimidine-3-carboxamide] gave an IC50 of under 0.1 µM.

Turning to `Cc1ccc(-n2nc(-c3ccc(NS(C)(=O)=O)cc3)cc2NC(=O)c2cnn3cccnc23)cc1` [Example 103, N-(3-(4-(methylsulfonamido)phenyl)-1-(p-tolyl)-1H-pyrazol-5-yl)pyrazolo[1,5-a]pyrimidine-3-carboxamide], the 50% inhibitory concentration (IC50) was under 0.1 µM.

In the case of `Cc1ccc(-n2nc(-c3ccc(CO)nc3)cc2NC(=O)c2cnn3cccnc23)cc1` [Example 330, N-{3-[6-(hydroxymethyl)pyridin-3-yl]-1-(4-methylphenyl)-1H-pyrazol-5-yl}pyrazolo[1,5-a]pyrimidine-3-carboxamide], the IC50 is under 0.1 µM.

In turn, `Cc1ccc(-n2nc(-c3ccc(C(=O)N(C)C)cc3)cc2NC(=O)c2cnn3cccnc23)cc1` [Example 349, N-{3-[4-(dimethylcarbamoyl)phenyl]-1-(4-methylphenyl)-1H-pyrazol-5-yl}pyrazolo[1,5-a]pyrimidine-3-carboxamide] had an IC50 of under 0.1 µM.

Still in this experiment, the particulars now being: 100 μM ATP, 30 minutes at 25° C.; μM.
The compound `Cc1ccc(-n2nc(C3CN(S(=O)(=O)C4CCCC4)C3)cc2NC(=O)c2cnn3cccnc23)cc1` [Example 85, N-(3-(1-(cyclopentylsulfonyl)azetidin-3-yl)-1-(p-tolyl)-1H-pyrazol-5-yl)pyrazolo[1,5-a]pyrimidine-3-carboxamide] returned an IC50 of under 1 µM.

As for `CCC(=O)N1CC(N2CCC(c3cc(NC(=O)c4cnn5cccnc45)n(-c4ccc(C)cc4)n3)CC2)C1` [Example 249, N-{1-(4-methylphenyl)-3-[1-(1-propanoylazetidin-3-yl)piperidin-4-yl]-1H-pyrazol-5-yl}pyrazolo[1,5-a]pyrimidine-3-carboxamide], the IC50 is under 1 µM.

As to `Cc1ccc(-n2nc(C3CN(Cc4ncco4)C3)cc2NC(=O)c2cnn3cccnc23)cc1` [Example 316, N-{1-(4-methylphenyl)-3-[1-(1,3-oxazol-2-ylmethyl)azetidin-3-yl]-1H-pyrazol-5-yl}pyrazolo[1,5-a]pyrimidine-3-carboxamide], the IC50 was under 1 µM.

In turn, `Cc1ccc(-n2nc(C3CCN(S(=O)(=O)C4CCCCC4)CC3)cc2NC(=O)c2cnn3cccnc23)cc1` [Example 373, N-{3-[1-(cyclohexylsulfonyl)piperidin-4-yl]-1-(4-methylphenyl)-1H-pyrazol-5-yl}pyrazolo[1,5-a]pyrimidine-3-carboxamide] showed an IC50 of under 1 µM.

In turn, `Cc1ccc(-n2nc(C3CCNCC3)cc2NC(=O)c2cnn3cccnc23)cn1` [Example 167, N-(1-(6-methylpyridin-3-yl)-3-(piperidin-4-yl)-1H-pyrazol-5-yl)pyrazolo[1,5-a]pyrimidine-3-carboxamide] registered an IC50 of over 1 µM.

`Cc1ccc(-n2nc(-c3ccnn3C)cc2NC(=O)c2cnn3cccnc23)cc1` [Example 331, N-[2′-methyl-1-(4-methylphenyl)-1H,2′H-3,3′-bipyrazol-5-yl]pyrazolo[1,5-a]pyrimidine-3-carboxamide] gave an IC50 of under 1 µM.

The compound `COc1ccc(S(=O)(=O)N2CCC(c3cc(NC(=O)c4cnn5cccnc45)n(-c4ccc(C)cc4)n3)CC2)cc1` [Example 367, N-[3-{1-[(4-methoxyphenyl)sulfonyl]piperidin-4-yl}-1-(4-methylphenyl)-1H-pyrazol-5-yl]pyrazolo[1,5-a]pyrimidine-3-carboxamide] returned an IC50 of under 1 µM.

The values above are taken from patent US9169260B2 (MERCK SHARP & DOHME CORP., priority 2011, dated 2015).
